Measured values reported in patent publication US20090099343A1 (priority 2005, published 2009).

Tests used:
PrP^Sc [1] = system: PrP^Sc
PrP^Sc [2] = system: PrP^Sc; remark: listed apart in the source
PrP^Sc [3] = molecular target: PrP^Sc (Mus musculus, UniProt P04925)
PrP^Sc [4] = conditions: for binding to PrP^Sc compared among peptide reagents: pH 4

PrP^Sc (Mus musculus, UniProt P04925), sequence (P04925 23-230 limits assumed): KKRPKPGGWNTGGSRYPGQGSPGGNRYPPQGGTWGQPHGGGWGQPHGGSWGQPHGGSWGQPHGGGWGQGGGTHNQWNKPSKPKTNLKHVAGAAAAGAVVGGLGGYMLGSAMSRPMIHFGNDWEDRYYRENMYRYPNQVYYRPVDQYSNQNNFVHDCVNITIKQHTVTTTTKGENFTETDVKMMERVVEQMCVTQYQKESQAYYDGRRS

## GGGQWNKPSK*KTN, wherein * is N-(cyclopropylmethyl)glycine [SEQ ID NO:111]
PrP^Sc [1]
  PrP^Sc dissociated from peptide reagent with NaCl: little was dissociated
  tightness of PrP^Sc binding to peptide reagent: bound most tightly

## (GGG)KKRPKPGGWNTGG [SEQ ID NO:67]
PrP^Sc [1]
  PrP^Sc dissociated from peptide reagent: virtually all
PrP^Sc [2]
  PrP^Sc eluted from peptide reagent: eluted all

## (GGG)KKRPKPGG [SEQ ID NO:68]
PrP^Sc [3]
  binding to PrP^Sc in infected mouse brain homogenate (FIG. 4, lane 5): strong binding
PrP^Sc [4]
  pH of optimal binding to PrP^Sc: 8
  binding to PrP^Sc compared among peptide reagents: bound equally well

## (GGG)QWNKPSKPKTN [SEQ ID NO:14]
PrP^Sc [4]
  pH of optimal binding to PrP^Sc: 8
  binding to PrP^Sc compared among peptide reagents: bound equally well

## (GGG)KKKKKKKK [SEQ ID NO:85]
PrP^Sc [4]
  pH of optimal binding to PrP^Sc: 8
  binding to PrP^Sc compared among peptide reagents: bound equally well
